# Patent publication US6649654B1, “Methods for identifying and using IKK inhibitors” (The Regents of the University of California, priority 1999, dated 2003)
# pIC50: −log10 of the molar value. Entries after “also recorded” stand apart in the source; their conditions may differ.
# Experiments:
# [1] = biological target: T1, Oct1 (Homo sapiens, UniProt P14859); assay: Oct1 DNA binding activity; type: cell-based
# T1 construct: endogenous in cells; host or cells: Jurkat (PGA1); cells of the 15dPGJ2 experiment not clearly stated
# T1 sequence (P14859 1-743): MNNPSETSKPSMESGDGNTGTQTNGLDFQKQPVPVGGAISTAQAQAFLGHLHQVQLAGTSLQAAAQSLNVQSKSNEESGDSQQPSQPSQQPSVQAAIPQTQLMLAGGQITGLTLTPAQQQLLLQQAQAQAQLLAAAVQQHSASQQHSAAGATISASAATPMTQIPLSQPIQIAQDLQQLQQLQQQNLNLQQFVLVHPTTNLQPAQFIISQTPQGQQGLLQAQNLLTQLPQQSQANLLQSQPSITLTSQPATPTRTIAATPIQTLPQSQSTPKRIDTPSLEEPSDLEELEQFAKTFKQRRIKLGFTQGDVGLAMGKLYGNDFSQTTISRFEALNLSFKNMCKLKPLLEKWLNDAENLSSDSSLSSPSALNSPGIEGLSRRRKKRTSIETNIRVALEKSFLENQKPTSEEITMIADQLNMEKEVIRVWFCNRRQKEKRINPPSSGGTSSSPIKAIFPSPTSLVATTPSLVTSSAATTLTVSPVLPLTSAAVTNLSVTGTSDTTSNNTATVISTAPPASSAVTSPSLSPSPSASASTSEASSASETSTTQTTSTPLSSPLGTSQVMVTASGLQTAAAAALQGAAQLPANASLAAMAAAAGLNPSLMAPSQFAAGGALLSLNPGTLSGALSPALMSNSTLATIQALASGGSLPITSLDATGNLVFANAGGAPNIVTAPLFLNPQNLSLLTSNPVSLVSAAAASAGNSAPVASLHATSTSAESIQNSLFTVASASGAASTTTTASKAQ
# [2] = biological target: T2, Sp1 (Homo sapiens, UniProt P08047); assay: Sp1 DNA binding activity; type: cell-based
# T2 construct: endogenous in cells; host or cells: Jurkat (PGA1); cells of the 15dPGJ2 experiment not clearly stated
# T2 sequence (P08047 whole entry): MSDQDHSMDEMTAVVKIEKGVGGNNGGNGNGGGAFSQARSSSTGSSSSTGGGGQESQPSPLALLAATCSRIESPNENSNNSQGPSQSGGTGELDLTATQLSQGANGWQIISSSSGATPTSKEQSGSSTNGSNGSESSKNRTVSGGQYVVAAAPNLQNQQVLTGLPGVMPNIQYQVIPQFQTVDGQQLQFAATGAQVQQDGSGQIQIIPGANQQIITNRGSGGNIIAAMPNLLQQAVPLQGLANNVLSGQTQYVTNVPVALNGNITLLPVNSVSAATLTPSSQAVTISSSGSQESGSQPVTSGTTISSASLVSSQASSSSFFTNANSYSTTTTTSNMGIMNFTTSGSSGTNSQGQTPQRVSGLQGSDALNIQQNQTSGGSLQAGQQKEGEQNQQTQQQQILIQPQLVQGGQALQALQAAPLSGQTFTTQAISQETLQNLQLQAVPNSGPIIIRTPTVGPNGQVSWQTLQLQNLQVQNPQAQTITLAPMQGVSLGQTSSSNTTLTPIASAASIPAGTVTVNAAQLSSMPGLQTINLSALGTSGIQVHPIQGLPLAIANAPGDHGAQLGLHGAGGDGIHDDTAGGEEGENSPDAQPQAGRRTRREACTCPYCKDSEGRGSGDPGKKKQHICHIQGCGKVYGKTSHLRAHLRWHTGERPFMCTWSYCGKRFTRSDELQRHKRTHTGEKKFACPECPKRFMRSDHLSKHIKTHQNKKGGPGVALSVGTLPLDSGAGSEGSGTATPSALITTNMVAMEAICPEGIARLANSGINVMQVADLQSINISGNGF
# [3] = biological target: T3, IKK (Homo sapiens, UniProt O14920+O15111); assay: Endogenous IKK activity (kinase assay) in treated, stimulated HeLa cells; type: cell-based; set-up: Endogenous IKK was immunoprecipitated from TNFα-stimulated HeLa cells; endogenous in cells; host or cells: HeLa; details: for effect on IKK activity: HeLa cells stimulated with TNFα (PGA1: IL-1 or TNFα)
# T3 sequence (O14920 whole entry): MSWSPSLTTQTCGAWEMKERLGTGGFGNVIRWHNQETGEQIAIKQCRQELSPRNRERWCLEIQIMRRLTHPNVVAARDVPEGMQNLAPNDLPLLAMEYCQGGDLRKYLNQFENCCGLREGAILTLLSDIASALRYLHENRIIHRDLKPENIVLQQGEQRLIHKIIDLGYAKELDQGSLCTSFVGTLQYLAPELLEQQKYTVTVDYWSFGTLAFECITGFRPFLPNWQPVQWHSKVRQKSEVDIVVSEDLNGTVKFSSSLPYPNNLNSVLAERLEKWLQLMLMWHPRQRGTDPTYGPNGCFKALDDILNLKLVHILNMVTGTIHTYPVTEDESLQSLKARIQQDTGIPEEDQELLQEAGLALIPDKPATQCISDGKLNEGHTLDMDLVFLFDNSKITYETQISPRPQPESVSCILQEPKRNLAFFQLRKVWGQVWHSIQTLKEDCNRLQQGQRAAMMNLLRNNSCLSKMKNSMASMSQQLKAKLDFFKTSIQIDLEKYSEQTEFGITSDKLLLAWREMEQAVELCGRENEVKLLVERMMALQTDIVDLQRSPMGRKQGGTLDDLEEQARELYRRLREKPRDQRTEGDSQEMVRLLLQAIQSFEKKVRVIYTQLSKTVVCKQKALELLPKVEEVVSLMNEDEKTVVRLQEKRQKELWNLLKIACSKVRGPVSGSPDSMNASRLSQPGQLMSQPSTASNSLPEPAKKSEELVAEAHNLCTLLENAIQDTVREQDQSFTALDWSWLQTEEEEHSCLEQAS
# T3 sequence (O15111 whole entry): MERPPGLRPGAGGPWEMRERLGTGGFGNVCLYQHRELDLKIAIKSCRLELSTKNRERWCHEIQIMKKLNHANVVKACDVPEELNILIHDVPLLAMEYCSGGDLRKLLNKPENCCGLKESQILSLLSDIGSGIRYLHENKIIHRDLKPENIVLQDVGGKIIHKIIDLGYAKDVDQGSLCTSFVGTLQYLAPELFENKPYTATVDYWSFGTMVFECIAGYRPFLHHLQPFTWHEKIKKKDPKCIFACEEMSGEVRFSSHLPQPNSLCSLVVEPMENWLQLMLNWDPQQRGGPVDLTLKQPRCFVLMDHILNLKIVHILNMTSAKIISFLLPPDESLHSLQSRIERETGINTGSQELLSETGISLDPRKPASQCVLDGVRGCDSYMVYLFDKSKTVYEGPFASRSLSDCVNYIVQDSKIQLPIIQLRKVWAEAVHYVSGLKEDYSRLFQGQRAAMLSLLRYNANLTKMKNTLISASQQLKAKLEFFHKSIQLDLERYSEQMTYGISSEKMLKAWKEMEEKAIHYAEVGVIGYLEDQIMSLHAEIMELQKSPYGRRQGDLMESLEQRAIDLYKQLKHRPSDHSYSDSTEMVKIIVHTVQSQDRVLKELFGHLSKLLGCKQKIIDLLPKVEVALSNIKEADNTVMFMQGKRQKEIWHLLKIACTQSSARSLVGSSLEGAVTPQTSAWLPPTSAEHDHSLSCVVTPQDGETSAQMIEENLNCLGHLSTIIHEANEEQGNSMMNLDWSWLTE
# T3 sequence (Q9Y6K9 whole entry partner): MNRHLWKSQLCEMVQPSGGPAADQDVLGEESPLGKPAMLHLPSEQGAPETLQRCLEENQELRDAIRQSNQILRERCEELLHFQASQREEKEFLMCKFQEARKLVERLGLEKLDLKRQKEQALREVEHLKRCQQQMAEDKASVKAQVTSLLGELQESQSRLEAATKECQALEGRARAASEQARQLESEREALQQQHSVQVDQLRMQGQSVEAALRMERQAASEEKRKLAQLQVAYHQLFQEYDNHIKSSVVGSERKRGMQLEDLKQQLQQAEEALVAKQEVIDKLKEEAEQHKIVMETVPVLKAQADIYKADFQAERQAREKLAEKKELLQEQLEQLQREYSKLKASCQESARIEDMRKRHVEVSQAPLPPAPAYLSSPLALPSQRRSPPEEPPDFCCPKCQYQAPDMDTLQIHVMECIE
# Method: Cells used in the experiments described herein were cultured in either RPMI 1640 (Jurkat cells) or DMEM (HeLa and COS cells), supplemented with 10% FBS and antibiotics. Cells were stimulated with either 25 ng/ml TPA, 20 ng/ml recombinant TNFα, or 10 ng/ml interleukin 1β (Sigma). PGA1, 15dPGJ2, T×B2, LTB4, AA and other PGs (Cayman) dissolved in ethanol were used as well, as known in the art (See e.g., Rossi et al., 94:746-750 [1997]). Controls received equal amounts of ethanol. Transfections were performed using Lipofectamine Plus (GIBCO) for HeLa and COS cells and DEAE-dextran (Sigma) for Jurkat cells. Xpress-tagged NIK, Xpress-tagged MEKK1, HA-tagged IKKα, and HA-tagged IKKβ were also used (See e.g., Zandi et al., Science 281:1360-1363 [1998]; and Delhase et al., Science 284:309-313 [1999]). COX2 and cPLA2 expression vectors were obtained from Dr. L. Feng (See also, Hirose et al., J. Am. Soc. Nephrol., 9:408-416 [1998]). PGD synthase was cloned from HT29 colon carcinoma cell line cDNA by PCR and subcloned into a pCDNA3 vector. Cells were lysed in buffer B (50 mM Tris-HCl, pH 7.5, 400 mM NaCl, 1 mM EDTA, 1 mM EGTA, 1% Triton, 0.5% NP-40, 10% glycerol, and supplemented with 20 mM β-glycerophosphate, 10 mM PNPP, […] 1 mM PMSF, 20 μg/ml aprotinin, 2.5 μg/ml leupeptin, 8.3 μg/ml bestatin, 1.7 μg/ml pepstatin, and 2 mM DTT).
# (§1) Cell lysates were incubated with anti-IKKα (Pharmingen), anti-HA (12CA5; Pharmingen), anti-JNK1 (333.8; Pharmingen), or anti-p38 (New England Biolabs) for 2 hours. Then, 15 μl protein A-Sepharose (Sigma) were added and the mixture was allowed to incubate for 1 hour. After extensive washing, kinase assays were performed as known in the art (See e.g., DiDonato et al., Nature 388:548-554 [1997]). Endogenous IKK, HA-tagged IKKα, endogenous JNK1, and p38 activities were determined with GST-1κBα(1-54), GST-c-Jun(1-79), and GST-ATF2 as substrates.
# (§2) In this Example, experiments to determined the effects of arachidonic acid and its metabolites on IKK activity in vivo and in vitro are described. HeLa cells were treated with 50 μM AA, PGA1, PGB2, PGD2, PGE1, PGE2, PGF1α, or thromboxane B2 (T×B2), 1 μM LTB4, or 5 μM 15dPGJ2, for 2 hours in RPMI containing 10% FCS, and stimulated with TNFα for 10 minutes. Cell lysates were then assayed for endogenous IKK activity and recovery. In this FIGURE, “control” indicates unstimulated cells, and “-” indicates treatment with diluent alone. In addition, IKK was immunoprecipitated from TNFα-stimulated HeLA cells and incubated in vitro with 100 μM AA, PGA1, PGB2, PGD2, PGE1, PGE2, PGF1α, or T×B2, 2 μM LTB4 or 10 μM 15dPGJ2, followed by kinase assay and immunoblot analysis. In this FIGURE, “control” indicates to unstimulated cells, and “-”indicates 1% ethanol.
# [4] = biological target: T3, IKK; assay: In vitro kinase assay of IKK immunoprecipitated from TNFα-stimulated HeLa cells; type: biochemical; set-up: Endogenous IKK was immunoprecipitated from TNFα-stimulated HeLa cells; endogenous in cells; host or cells: HeLa; details: for pIC50: IKK immunoprecipitated from TNFα-stimulated HeLa cells
# Method: as §1
# Endogenous IKK was immunoprecipitated from TNFα-stimulated HeLa cells and the kinase activity determined in the presence of different concentrations of PGA1 (the results of which are shown in FIG. 2B) or 15dPGJ2 (the results of which are shown in FIG. 2C).
# as §2
# Many protein kinase inhibitors compete with binding of ATP, but preincubation in the presence of increasing concentrations of ATP had no effect on inhibition of IKKβ by 15dPGJ2, as indicated in FIG. 6A. […] The pellets were rinsed and kinase activity was measured.
SMILES,"effect on Oct1 DNA binding ([1]; PGA1 (120 μM), FIG. 1A)","effect on Sp1 DNA binding ([2]; PGA1 (120 μM), FIG. 1A)",effect on IKK activity [3],pIC50 [4],"effect on Oct1 DNA-binding activity ([1]; 15dPGJ2, data not shown)","effect on Sp1 DNA-binding activity ([2]; 15dPGJ2, data not shown)","pIC50 ([3]; HeLa cells, TNFα, read-out: half-maximal inhibition of IKK activity)","effect of pre-incubation with increasing ATP on inhibition (ATP competition) ([4]; 15dPGJ2 0-30 μM with or without ATP, 4° C., 30 minutes)"
"CCCCC[C@H](O)/C=C/[C@H]1C=CC(=O)C1CCCCCCC(=O)O (stereo partly shown) [PGA1, prostaglandin A1]",did not inhibit; also recorded: No effects,did not inhibit; also recorded: No effects,inhibited,4.10,–,–,–,–
"CCCCC/C=C/C=C1/C(=O)C=C[C@@H]1C/C=C\CCCC(=O)O [15dPGJ2, 15-deoxy-Δ^12-14-PGJ2]",–,–,inhibited,5.15,did not inhibit,did not inhibit,5.29,had no effect; also recorded: not a competitive inhibitor of ATP binding
